Measured values: patent US9840500B2, “Compounds as dual inhibitors of histone methyltransferases and DNA methyltransferases” (FUNDACIÓN PARA LA INVESTIGACIÓN MÉDICA APLICADA, priority 2014, dated 2017)

Key:
OCI-Ly10 = experiment: Cell proliferation assay, OCI-Ly10 (ABC-DLBCL); format: cell-based; conditions: Homo sapiens, 48 hours of treatment, Table 3
Experimental: (§1) Cell proliferation was analyzed after 48 hours of in vitro treatment using the CellTiter 96 Aqueous One Solution Cell Proliferation Assay (Promega, Madison, Wis.). This is a colorimetric method for determining the number of viable cells in proliferation.
(§2) For the assay, suspension cells were cultured by triplicate at a density of 1×10^6 cells/ml in 96-well plates (100.000 cells/well, 100 μl/well), except for OCILY-3 and OCILY-10 cell lines which were cultured at a density of 0.5×10^6 cells/ml (50.000 cells/well, 100 μl/well) and for HepG2, Hep3B and PLC/PRF/5 cell ines which were cultured at a density of 3000 cells/well, 100 μl/well). Adherent cells were obtained from 80-90% confluent flasks and 100 μl of cells were seeded at a density of 5000 cells/well in 96-well plates by triplicate. Before addition of the compounds, adherent cells were allowed to attach to the bottom of the wells for 12 hours. In all cases, only the 60 inner wells were used to avoid any border effects.
(§3) After 48 hours of treatment, plates with suspension cells were centrifuged at 800 g for 10 minutes and medium was removed. The plates with adherent cells were flicked to remove medium. Then, cells were incubated with 100 ul/well of medium and 20 ul/well of CellTiter 96 Aqueous One Solution reagent. After 1-3 hours of incubation at 37° C., absorbance was measured at 490 nm in a 96-well plate reader. The background absorbance was measured in wells with only cell line medium and solution reagent. Data was calculated as a percentage of total absorbance of treated cell/absorbance of non treated cells.

[1] = tested on: human B-ALL mice model with CEMO-1 cell line; experiment: In vivo therapeutic activity in the preclinical human B-ALL mice model with CEMO-1 cell line; design: species or system BALB/cA-Rag2−/−γc−/− mice
Experimental: To examine the in vivo activity, a preclinical model of human B-ALL with RAG2 mouse was used. Six to eight-week old female BALB/cA-Rag2^−/−γc^−/− mice were purchased from The Netherlands Cancer Institute and maintained in pathogen-free isolation cages. RAG2 mice were injected intravenously (i.v.) with 10×10^6 CEMO-1 cells via tail vein to generate the human B-ALL mice model. Animals in groups of six were treated starting at day three after cells inoculation. The first group served as control and received placebo (saline) daily for 28 consecutive days, via i.v. injection.
The second group was treated with 3-04 (2.5 mg/kg) daily for 28 consecutive days via i.v. Animals were monitored weekly for weight loss and signs of tumour burden by flow cytometry of human cells. The median survival for 3-04 treated mice (N=6) was 91 days (SD: ±5.72) compared to 57 days (SD: ±10.52) for control mice (N=6) after cells inoculation.

SU-DHL-7 = experiment: Cell proliferation assay, SU-DHL-7 (GC-DLBCL); format: cell-based; conditions: 48 hours
Experimental: as §1
as §2, with “In all cases, only the 60 inner wells were used to avoid any border effects.” left out
as §3, with “The plates with adherent cells were flicked to remove medium. Then, cells were incubated with 100 ul/well of medium and 20 ul/well of CellTiter 96 Aqueous One Solution reagent.” left out, “cells. […]” for “cells.”

## COc1cc2c(NC3CCN(C)CC3)cc(-c3ccc(C)o3)nc2cc1OCCCN1CCCC1.O=C(O)C(F)(F)F [Compound 3-04, 6-methoxy-2-(5-methyl-2-furyl)-N-(1-methyl-4-piperidyl)-7-(3-pyrrolidin-1-ylpropoxy)quinolin-4-amine; 2,2,2-trifluoroacetic acid]
OCI-Ly10
  GI50: 100 to 1000 nM
[1]; 2.5 mg/kg daily for 28 consecutive days i.v., after cells inoculation, control 57 days
  median survival: 91 days
[1]; 2.5 mg/kg daily for 28 days i.v., P=0.0009
  survival compared with the control (Kaplan-Meier, log-rank test): significantly prolonged survival
SU-DHL-7
  GI50: 100 to 1000 nM
